Laboratory results reported in ChEMBL document CHEMBL1157712, “Hit to lead account of the discovery of bisbenzamide and related ureidobenzamide inhibitors of Rho kinase” (J Med Chem, 2010).
Values after ≈ are worked out from the molar mass of the structure shown. Values belong to the compound of their own block, whether it stands above or below them.

Legend:
[1] = target: MAP kinase-interacting serine/threonine-protein kinase 1 (Homo sapiens) (UniProt Q9BUB5); assay: Inhibition of MNK1 at 3 uM relative to control; values are per cent of control
[2] = target: MAP kinase-activated protein kinase 2 (Homo sapiens) (UniProt P49137); assay: Inhibition of MAPKAPK2 at 3 uM relative to control; values are per cent of control
[3] = target: Serine/threonine-protein kinase Nek7 (Homo sapiens) (UniProt Q8TDX7); assay: Inhibition of NEK7 at 3 uM relative to control; values are per cent of control
[4] = target: cGMP-dependent protein kinase 1 (Homo sapiens, UniProt Q13976); assay: Inhibition of PRKG1
[5] = target: MAP kinase-activated protein kinase 5 (Homo sapiens) (UniProt Q8IW41); assay: Inhibition of PRAK at 3 uM relative to control; values are per cent of control
[6] = Inhibition of PKA at 3 uM relative to control; values are per cent of control
[7] = target: Serine/threonine-protein kinase D1 (Homo sapiens) (UniProt Q15139); assay: Inhibition of PKD1 at 3 uM relative to control; values are per cent of control
[8] = target: Casein kinase I isoform alpha (Homo sapiens) (UniProt P48729); assay: Inhibition of CK1 at 3 uM relative to control; values are per cent of control
[9] = target: T1, Serine/threonine-protein kinase PLK1 (Homo sapiens, UniProt P53350); assay: Inhibition of PLK1 at 3 uM relative to control; values are per cent of control
[10] = target: Calcium/calmodulin-dependent protein kinase type 1 (Homo sapiens) (UniProt Q14012); assay: Inhibition of CAMK1 at 3 uM relative to control; values are per cent of control
[11] = target: Ribosomal protein S6 kinase alpha-1 (Homo sapiens) (UniProt Q15418); assay: Inhibition of MAPKAPK1A at 3 uM relative to control; values are per cent of control
[12] = target: [Pyruvate dehydrogenase (acetyl-transferring)] kinase isozyme 1, mitochondrial (Homo sapiens) (UniProt Q15118); assay: Inhibition of PDK1 at 3 uM relative to control; values are per cent of control
[13] = target: Rho-associated protein kinase 2 (Homo sapiens, UniProt O75116)
Description: Inhibition of human ROCK2 by homogenous luciferase assay

[14] = Inhibition of SAPK2a at 3 uM relative to control; values are per cent of control
[15] = target: MAP kinase-interacting serine/threonine-protein kinase 2 (Homo sapiens) (UniProt Q9HBH9); assay: Inhibition of MNK2 at 3 uM relative to control; values are per cent of control
[16] = target: Ribosomal protein S6 kinase alpha-3 (Homo sapiens) (UniProt P51812); assay: Inhibition of MAPKAPK1b at 3 uM relative to control; values are per cent of control
[17] = target: T2, Serine/threonine-protein kinase pim-2 (Homo sapiens, UniProt Q9P1W9); assay: Inhibition of PIM2 at 3 uM relative to control; values are per cent of control
[18] = Inhibition of AMPK at 3 uM relative to control; values are per cent of control
[19] = target: Dual specificity mitogen-activated protein kinase kinase 1 (Homo sapiens) (UniProt Q02750); assay: Inhibition of MKK1 at 3 uM relative to control; values are per cent of control
[20] = target: Mitogen-activated protein kinase 8 (Homo sapiens) (UniProt P45983); assay: Inhibition of JNK1a1 at 3 uM relative to control; values are per cent of control
Cytochrome P450 3A4 = Cytochrome P450 3A4 (Homo sapiens, UniProt P08684); assay: Inhibition of human CYP3A4 by LCMS/MS assay; format: ADME
Cytochrome P450 2C9 = Cytochrome P450 2C9 (Homo sapiens, UniProt P11712); assay: Inhibition of human CYP2C9 by fluorescence assay; format: ADME
[21] = target: Cyclin-dependent kinase 2 (Homo sapiens) (UniProt P24941); conditions: 3 to 6 uM
Description: Inhibition of CDK2 at 3 to 6 uM relative to control

[22] = target: Myosin light chain kinase, smooth muscle (Homo sapiens) (UniProt Q15746); conditions: 3 to 6 uM
Description: Inhibition of SMMLCK at 3 to 6 uM relative to control

[23] = Membrane permeability by PAMPA assay; format: ADME; conditions: read-out: permeability
Cytochrome P450 2D6 = Cytochrome P450 2D6 (Homo sapiens, UniProt P10635); assay: Inhibition of human CYP2D6 by fluorescence assay; format: ADME
[24] = target: T1, Serine/threonine-protein kinase PLK1; conditions: 3 to 6 uM
Description: Inhibition of PLK1 at 3 to 6 uM relative to control

[25] = target: Epithelial discoidin domain-containing receptor 1 (Homo sapiens) (UniProt Q08345); conditions: 3 to 6 uM
Description: Inhibition of DDR1 at 3 to 6 uM relative to control

[26] = target: Mitogen-activated protein kinase 1 (Homo sapiens) (UniProt P28482); conditions: 3 to 6 uM
Description: Inhibition of MAPK2 at 3 to 6 uM relative to control

[27] = target: Protein kinase C delta type (Homo sapiens, UniProt Q05655); assay: Inhibition of PRKCD
[28] = target: RAC-beta serine/threonine-protein kinase (Homo sapiens) (UniProt P31751); conditions: 3 to 6 uM
Description: Inhibition of PKBbeta at 3 to 6 uM relative to control

Rattus norvegicus = organism: Rattus norvegicus; assay: Induction of relaxation activity of phenylephrine-induced Sprague-Dawley rat aortic ring contraction; format: functional; conditions: Aorta
[29] = target: Dual specificity protein kinase CLK1 (Homo sapiens) (UniProt P49759); conditions: 3 to 6 uM
Description: Inhibition of CLK1 at 3 to 6 uM relative to control

[30] = target: MAP kinase-interacting serine/threonine-protein kinase 1 (Homo sapiens) (UniProt Q9BUB5); conditions: 3 to 6 uM
Description: Inhibition of MNK1 at 3 to 6 uM relative to control

[31] = target: MAP/microtubule affinity-regulating kinase 3 (Homo sapiens) (UniProt P27448); conditions: 3 to 6 uM
Description: Inhibition of MARK3 at 3 to 6 uM relative to control

[32] = target: T2, Serine/threonine-protein kinase pim-2; assay: Inhibition of PIM2
[33] = Permeability from basolateral to apical side in human Caco-2 cells; format: ADME, cell-based; conditions: read-out: permeability
[34] = target: Mitogen-activated protein kinase 8 (Homo sapiens) (UniProt P45983); conditions: 3 to 6 uM
Description: Inhibition of JNK1a1 at 3 to 6 uM relative to control

[35] = target: Serine/threonine-protein kinase D1 (Homo sapiens) (UniProt Q15139); conditions: 3 to 6 uM
Description: Inhibition of PKD1 at 3 to 6 uM relative to control

[36] = Solubility at pH 7.4; format: physicochemical; conditions: buffer

Serine/threonine-protein kinase D1 (Homo sapiens), sequence (Q15139 whole entry, canonical isoform): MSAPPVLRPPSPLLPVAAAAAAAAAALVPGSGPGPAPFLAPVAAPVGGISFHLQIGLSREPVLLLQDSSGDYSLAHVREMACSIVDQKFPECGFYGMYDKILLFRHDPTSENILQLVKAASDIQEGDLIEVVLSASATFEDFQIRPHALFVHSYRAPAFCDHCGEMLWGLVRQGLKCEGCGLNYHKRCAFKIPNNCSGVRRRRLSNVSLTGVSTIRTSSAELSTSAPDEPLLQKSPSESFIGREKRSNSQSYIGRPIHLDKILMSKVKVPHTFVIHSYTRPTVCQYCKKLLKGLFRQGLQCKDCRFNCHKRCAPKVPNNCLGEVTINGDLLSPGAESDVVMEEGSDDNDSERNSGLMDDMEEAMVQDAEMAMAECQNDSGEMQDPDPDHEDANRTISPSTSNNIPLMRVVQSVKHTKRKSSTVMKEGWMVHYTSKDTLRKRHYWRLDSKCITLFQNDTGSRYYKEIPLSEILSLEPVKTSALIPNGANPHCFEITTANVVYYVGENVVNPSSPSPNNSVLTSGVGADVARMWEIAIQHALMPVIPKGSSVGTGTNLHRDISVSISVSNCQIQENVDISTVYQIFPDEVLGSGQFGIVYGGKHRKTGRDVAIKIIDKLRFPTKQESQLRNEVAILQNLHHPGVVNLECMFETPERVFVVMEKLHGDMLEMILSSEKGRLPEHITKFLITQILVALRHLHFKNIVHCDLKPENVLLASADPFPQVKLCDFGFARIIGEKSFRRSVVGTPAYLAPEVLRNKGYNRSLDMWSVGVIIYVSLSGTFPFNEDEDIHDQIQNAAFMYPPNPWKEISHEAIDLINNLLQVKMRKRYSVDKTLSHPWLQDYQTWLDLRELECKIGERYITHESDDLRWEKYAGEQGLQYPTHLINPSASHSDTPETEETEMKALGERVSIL
MAP kinase-interacting serine/threonine-protein kinase 1 (Homo sapiens), sequence (Q9BUB5 whole entry, looked up): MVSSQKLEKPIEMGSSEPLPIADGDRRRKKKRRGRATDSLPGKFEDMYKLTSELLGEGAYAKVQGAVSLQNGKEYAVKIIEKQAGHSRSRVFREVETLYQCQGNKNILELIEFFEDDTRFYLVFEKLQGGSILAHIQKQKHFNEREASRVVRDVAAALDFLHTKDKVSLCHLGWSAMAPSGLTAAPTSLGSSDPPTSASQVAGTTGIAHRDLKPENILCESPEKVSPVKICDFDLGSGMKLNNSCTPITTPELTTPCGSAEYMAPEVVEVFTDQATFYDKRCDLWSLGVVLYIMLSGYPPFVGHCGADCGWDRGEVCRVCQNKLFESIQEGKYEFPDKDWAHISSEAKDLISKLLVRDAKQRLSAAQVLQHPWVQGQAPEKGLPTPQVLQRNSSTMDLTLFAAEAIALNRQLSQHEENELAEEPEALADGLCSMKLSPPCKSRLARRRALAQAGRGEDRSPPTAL
T1 sequence (P53350 whole entry): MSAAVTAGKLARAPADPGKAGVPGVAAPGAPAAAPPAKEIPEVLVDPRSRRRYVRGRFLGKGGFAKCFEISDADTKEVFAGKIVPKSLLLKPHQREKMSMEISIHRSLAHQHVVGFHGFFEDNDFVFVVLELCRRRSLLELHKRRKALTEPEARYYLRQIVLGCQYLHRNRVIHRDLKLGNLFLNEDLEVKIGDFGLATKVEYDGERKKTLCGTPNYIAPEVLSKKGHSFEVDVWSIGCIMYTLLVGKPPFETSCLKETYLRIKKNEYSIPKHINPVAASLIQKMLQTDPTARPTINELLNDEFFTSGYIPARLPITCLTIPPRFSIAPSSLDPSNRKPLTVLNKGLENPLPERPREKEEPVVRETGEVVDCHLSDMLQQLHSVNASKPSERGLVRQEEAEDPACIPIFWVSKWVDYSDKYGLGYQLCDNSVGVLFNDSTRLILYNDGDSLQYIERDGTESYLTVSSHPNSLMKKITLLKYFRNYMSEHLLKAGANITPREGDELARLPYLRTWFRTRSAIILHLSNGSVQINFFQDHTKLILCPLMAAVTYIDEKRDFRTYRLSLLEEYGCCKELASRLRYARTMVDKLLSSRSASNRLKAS
cGMP-dependent protein kinase 1, sequence (Q13976 whole entry): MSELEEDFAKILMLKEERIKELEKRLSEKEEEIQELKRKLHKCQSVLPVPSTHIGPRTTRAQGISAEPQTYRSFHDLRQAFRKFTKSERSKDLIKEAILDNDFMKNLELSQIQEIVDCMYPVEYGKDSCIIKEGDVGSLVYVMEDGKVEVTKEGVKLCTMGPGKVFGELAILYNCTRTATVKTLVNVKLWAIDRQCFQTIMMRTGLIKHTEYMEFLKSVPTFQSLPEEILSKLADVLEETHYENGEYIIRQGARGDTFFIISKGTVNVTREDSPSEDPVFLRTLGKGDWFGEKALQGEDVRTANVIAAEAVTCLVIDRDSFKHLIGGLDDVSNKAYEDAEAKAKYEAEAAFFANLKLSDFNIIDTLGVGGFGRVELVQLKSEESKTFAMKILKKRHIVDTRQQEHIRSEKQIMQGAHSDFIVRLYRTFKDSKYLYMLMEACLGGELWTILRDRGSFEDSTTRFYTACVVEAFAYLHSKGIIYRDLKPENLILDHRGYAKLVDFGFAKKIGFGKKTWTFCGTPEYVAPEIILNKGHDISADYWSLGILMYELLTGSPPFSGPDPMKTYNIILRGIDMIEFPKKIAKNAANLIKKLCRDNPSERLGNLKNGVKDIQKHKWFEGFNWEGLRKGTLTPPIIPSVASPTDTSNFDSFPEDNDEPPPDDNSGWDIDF
Mitogen-activated protein kinase 8 (Homo sapiens), sequence (P45983 whole entry): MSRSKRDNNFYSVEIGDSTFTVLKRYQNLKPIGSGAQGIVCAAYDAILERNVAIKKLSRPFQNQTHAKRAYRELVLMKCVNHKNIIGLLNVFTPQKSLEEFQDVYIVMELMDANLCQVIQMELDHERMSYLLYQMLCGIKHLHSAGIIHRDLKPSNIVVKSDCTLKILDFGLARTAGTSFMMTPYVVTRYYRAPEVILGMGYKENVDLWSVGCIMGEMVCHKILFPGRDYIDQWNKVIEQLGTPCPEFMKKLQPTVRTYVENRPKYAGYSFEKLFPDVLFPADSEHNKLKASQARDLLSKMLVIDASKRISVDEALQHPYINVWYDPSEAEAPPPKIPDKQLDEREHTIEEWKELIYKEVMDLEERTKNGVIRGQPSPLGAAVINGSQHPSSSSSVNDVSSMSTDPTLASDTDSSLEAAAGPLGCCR
Rho-associated protein kinase 2, sequence (O75116 whole entry): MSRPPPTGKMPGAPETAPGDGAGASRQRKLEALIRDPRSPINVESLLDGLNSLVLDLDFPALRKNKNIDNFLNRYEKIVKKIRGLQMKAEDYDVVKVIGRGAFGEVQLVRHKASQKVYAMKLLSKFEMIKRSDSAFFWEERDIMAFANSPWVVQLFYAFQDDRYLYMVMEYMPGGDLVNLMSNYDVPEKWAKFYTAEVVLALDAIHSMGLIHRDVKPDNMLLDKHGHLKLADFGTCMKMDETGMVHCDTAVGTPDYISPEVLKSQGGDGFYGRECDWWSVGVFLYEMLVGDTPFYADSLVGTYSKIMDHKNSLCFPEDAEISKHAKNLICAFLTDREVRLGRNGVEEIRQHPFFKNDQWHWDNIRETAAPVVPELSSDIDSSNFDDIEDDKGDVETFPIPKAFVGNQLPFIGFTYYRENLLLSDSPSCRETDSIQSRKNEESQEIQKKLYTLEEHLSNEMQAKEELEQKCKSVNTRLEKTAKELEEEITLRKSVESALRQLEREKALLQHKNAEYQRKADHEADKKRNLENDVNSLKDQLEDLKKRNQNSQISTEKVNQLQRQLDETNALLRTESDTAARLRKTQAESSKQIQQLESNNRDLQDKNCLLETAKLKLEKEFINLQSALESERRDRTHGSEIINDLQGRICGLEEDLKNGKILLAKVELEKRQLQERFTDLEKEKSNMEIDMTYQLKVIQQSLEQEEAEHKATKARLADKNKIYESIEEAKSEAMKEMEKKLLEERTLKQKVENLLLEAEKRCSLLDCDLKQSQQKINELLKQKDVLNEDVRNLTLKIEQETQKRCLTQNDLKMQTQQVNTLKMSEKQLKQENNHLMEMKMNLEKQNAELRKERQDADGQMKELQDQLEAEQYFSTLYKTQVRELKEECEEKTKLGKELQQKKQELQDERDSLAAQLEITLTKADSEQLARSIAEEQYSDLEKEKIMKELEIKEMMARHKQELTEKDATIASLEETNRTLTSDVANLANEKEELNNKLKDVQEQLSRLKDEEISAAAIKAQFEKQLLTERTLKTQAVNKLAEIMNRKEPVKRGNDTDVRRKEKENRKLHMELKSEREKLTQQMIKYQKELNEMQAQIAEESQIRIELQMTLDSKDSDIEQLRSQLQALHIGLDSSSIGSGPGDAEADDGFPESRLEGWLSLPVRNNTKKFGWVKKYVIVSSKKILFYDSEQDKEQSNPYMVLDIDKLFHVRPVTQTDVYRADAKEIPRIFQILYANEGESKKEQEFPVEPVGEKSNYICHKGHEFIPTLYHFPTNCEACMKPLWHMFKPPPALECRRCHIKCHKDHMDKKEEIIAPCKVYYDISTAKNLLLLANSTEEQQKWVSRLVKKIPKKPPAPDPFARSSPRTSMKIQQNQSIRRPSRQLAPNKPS
RAC-beta serine/threonine-protein kinase (Homo sapiens), sequence (P31751 whole entry): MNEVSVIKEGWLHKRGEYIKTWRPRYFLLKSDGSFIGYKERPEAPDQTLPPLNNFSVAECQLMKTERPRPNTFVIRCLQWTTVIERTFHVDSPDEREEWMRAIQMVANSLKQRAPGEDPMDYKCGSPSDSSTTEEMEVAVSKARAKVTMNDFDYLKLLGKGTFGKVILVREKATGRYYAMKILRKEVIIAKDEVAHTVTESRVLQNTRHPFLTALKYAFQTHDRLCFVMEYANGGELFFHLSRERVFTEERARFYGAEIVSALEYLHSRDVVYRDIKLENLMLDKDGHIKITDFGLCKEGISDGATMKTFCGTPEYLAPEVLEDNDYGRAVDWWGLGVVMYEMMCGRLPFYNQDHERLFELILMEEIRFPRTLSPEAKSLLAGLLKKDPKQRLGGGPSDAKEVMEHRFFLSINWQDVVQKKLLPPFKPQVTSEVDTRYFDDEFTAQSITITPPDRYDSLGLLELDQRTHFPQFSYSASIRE

residual activity [1]: > 50%
residual activity [2]: > 50%
residual activity [3]: > 50%
IC50 [4]: 3 µM
residual activity [5]: > 50%
residual activity [6]: > 50%
residual activity [7]: > 50%
residual activity [8]: > 50%
residual activity [9]: > 50%
residual activity [10]: > 50%
residual activity [11]: > 50%
residual activity [12]: > 50%
IC50 [13]: 0.004 µM
residual activity [14]: > 50%
residual activity [15]: > 50%
residual activity [16]: > 50%
residual activity [17]: > 50%
residual activity [18]: > 50%
residual activity [19]: > 50%
residual activity [20]: > 50%
Structure (SMILES): NC(=O)c1ccc(NC(=O)NCc2cccc(C(=O)Nc3ccc4c(c3)CNCC4)c2)cc1

IC50 (Cytochrome P450 3A4): > 30 µM
IC50 (Cytochrome P450 2C9): > 30 µM
residual activity [21]: > 50%
residual activity [22]: > 50%
Papp [23]: 3.6 ×10⁻⁶ cm/s
IC50 (Cytochrome P450 2D6): > 30 µM
IC50 [4]: 5.6 µM
residual activity [24]: > 50%
residual activity [25]: > 50%
residual activity [26]: > 50%
IC50 [27]: > 10 µM
residual activity [28]: > 50%
IC50 (Rattus norvegicus): 6.4 µM
residual activity [29]: > 50%
IC50 [13]: 0.033 µM
residual activity [30]: > 50%
residual activity [31]: > 50%
IC50 [32]: > 10 µM
Papp B→A [33]: 5.4 ×10⁻⁶ cm/s
residual activity [34]: > 50%
residual activity [35]: > 50%
solubility [36]: 49 µg/mL (≈ 110 µM)
Structure (SMILES): COc1ccc(C(=O)NCc2cccc(C(=O)Nc3ccc4c(c3)CNCC4)c2)cc1OC
